{
  "source": "patent US20230125487A1",
  "about": "“COMPOSITION FOR TREATING OR PREVENTING INFLAMMATORY BOWEL DISEASE” (FUGENBIO CO., LTD., priority 2019, published 2023)",
  "key": {"IL-1β": {"test_system": "IL-1β", "experiment": "IL-1β mRNA expression in LPS-stimulated RAW 264.7 macrophages", "assay_type": "cell-based", "settings": "0.1 μg/mL E. coli-derived LPS, 25 μM compound, FIG. 5"}, "IL-1α": {"test_system": "IL-1α", "experiment": "IL-1α mRNA expression in LPS-stimulated RAW 264.7 macrophages", "assay_type": "cell-based", "settings": "0.1 μg/mL E. coli-derived LPS, 25 μM compound, FIG. 4"}, "nitric oxide (NO)": {"test_system": "nitric oxide (NO)", "experiment": "NO level in LPS-stimulated RAW 264.7 macrophages", "assay_type": "cell-based", "settings": "0.1 μg/mL E. coli-derived LPS, 25 μM compound, FIGS. 7a and 7b", "protocol": "(§1) RAW 264.7 macrophages were treated with 0.1 μg/mL of E. coli-derived LPS and 25 μM of Compounds A1 to A6, B1 to B6, or C1 to C6, respectively. Then, the mRNA expression level of the inflammatory cytokine TNFα was observed through RT-PCR.\nNitric oxide (NO), which is increased by LPS stimulation in RAW 264.7 macrophages, is one of the causes of inflammatory bowel disease along with inflammatory cytokines. Therefore, in Experimental Example 3, it was confirmed in the same manner as in Experimental Example 1 whether NO produced by LPS stimulation could be reduced by the compound according to the present invention.\nFIGS. 7a and 7b show the results of observing NO concentration (μM)."}, "iNOS": {"test_system": "iNOS", "experiment": "iNOS mRNA expression in LPS-stimulated RAW 264.7 macrophages", "assay_type": "cell-based", "settings": "0.1 μg/mL E. coli-derived LPS, 25 μM compound, FIGS. 3a and 3b", "protocol": "as §1\n(§2) FIGS. 2a and 2b show the result of representing the mRNA expression level of COX2. FIGS. 3a and 3b show the result of representing the mRNA expression level of iNOS."}, "TNFα": {"test_system": "TNFα", "experiment": "TNFα mRNA expression in LPS-stimulated RAW 264.7 macrophages (RT-PCR)", "assay_type": "cell-based", "settings": "0.1 μg/mL E. coli-derived LPS, 25 μM compound, FIGS. 1a to 1c", "protocol": "as §1"}, "[1]": {"test_system": "free radicals and NO formation", "settings": "disclosed in Cheng et al., Biochemical Pharmacology, 2001, Vol. 61, 939-946; cited from earlier work"}, "COX2": {"test_system": "COX2", "experiment": "COX2 mRNA expression in LPS-stimulated RAW 264.7 macrophages", "assay_type": "cell-based", "settings": "0.1 μg/mL E. coli-derived LPS, 25 μM compound, FIGS. 2a and 2b", "protocol": "as §1, §2"}, "MCP1": {"test_system": "MCP1", "experiment": "MCP1 mRNA expression in LPS-stimulated RAW 264.7 macrophages", "assay_type": "cell-based", "settings": "0.1 μg/mL E. coli-derived LPS, 25 μM compound, FIG. 6"}},
  "data": [
    {"smiles": "CC(C)=CCc1cc(C(=O)/C=C/c2ccc(O)c(O)c2)c(O)cc1O", "note": "[Compound A1, broussochalcone A]", "values": [
      {"measurement": "mRNA expression level of IL-1β", "setting": "IL-1β", "result": "suppressed"},
      {"measurement": "mRNA expression level of IL-1α", "setting": "IL-1α", "result": "suppressed"},
      {"measurement": "NO level increased by LPS stimulation", "setting": "nitric oxide (NO)", "result": "suppressed"},
      {"measurement": "mRNA expression level of iNOS", "setting": "iNOS", "result": "suppressed"},
      {"measurement": "increase in the mRNA expression level of TNFα induced by LPS stimulation", "setting": "TNFα", "result": "suppressed"},
      {"measurement": "excessive free radicals and NO formation", "setting": "[1]", "result": "inhibits"},
      {"measurement": "mRNA expression level of COX2", "setting": "COX2", "result": "suppressed"},
      {"measurement": "mRNA expression level of MCP1", "setting": "MCP1", "result": "suppressed"}
    ]}
  ]
}
